Results: patent US20180296586A1, “USE OF NADPH FOR PREPARATION OF A DRUG FOR ANTIPLATELET AGGREGATION” (Chongqing Institute of Bench-to-Bed Bioengineering …, priority 2015, published 2018)

What was measured:
[1] = tested on: thrombin-induced platelet aggregation; experiment: Thrombin-induced platelet aggregation after preventive administration of NADPH in rats; assay type: in vivo, rat; settings: NADPH 7.5 mg/kg caudal vein 30 min before blood drawing, thrombin 2U, P<0.01
Protocol: (§1) Normal SD male rats are randomly divided into 2 groups, i.e., a physiological saline group (saline group) and an NADPH (7.5 mg/kg) dosage group in a manner that each group comprises 10 rats. NADPH is injected into the rats through caudal veins 30 min before blood drawing. The rats are subjected to blood drawing from abdominal aorta, 3.8% sodium citrate is used for carrying out anticoagulation treatment according to a drawn blood volume/anticoagulant ratio of 9:1, centrifugation is carried out for 5 min at a rate of 1000 r/min, upper-layer platelet-rich plasma (PRP) is sucked out, remaining blood is subjected to centrifugation for 10 min at a rate of 3000 r/min to prepare platelet-poor plasma (PPP) until the number of platelets is 2*10<8>/mL, and platelet aggregation is detected by adopting a platelet aggregometer Chronolog-590.
The platelet aggregometer is turned on and preheated for 30 min, and light transmittance is adjusted to 100% with PPP as blank control. […]

[2] = tested on: ADP-induced platelet aggregation; experiment: ADP-induced platelet aggregation after preventive administration of NADPH in rats; assay type: in vivo, rat; settings: NADPH 7.5 mg/kg caudal vein 30 min before blood drawing, ADP 20 μM, P<0.01
Protocol: as §1
The platelet aggregometer is turned on and preheated for 30 min, and light transmittance is adjusted to 100% with PPP as blank control. APRP sample of the physiological saline group (saline group) and a PRP sample of the NADPH (7.5 mg/kg) dosage group are preheated for 5 min at the temperature of 37 DEG C., the preheated PRP samples are put into the aggregometer, then, a certain amount of ADP (20 μM) is added to induce platelet aggregation, graphic changes in 4 min are recorded, and conditions of ADP-induced platelet aggregation caused by NADPH are observed.

[3] = tested on: thrombin-induced platelet aggregation; experiment: Thrombin-induced platelet aggregation of rats, in-vitro administration of NADPH; assay type: cell-based; settings: rat PRP, NADPH 30, 60 and 90 μM in vitro, thrombin 2U, 4 min; P<0.05, P<0.01 vs thrombin group
Protocol: as §1, with “20” for “Normal SD male rats are randomly divided into 2 groups, i.e., a physiological saline group (saline group) and an NADPH (7.5 mg/kg) dosage group in a manner that each group comprises 10 rats. NADPH is injected into the rats through caudal veins 30 min before blood drawing. The”
(§2) The platelet aggregometer is turned on and preheated for 30 min, and light transmittance is adjusted to 100 % with PPP as blank control. 0.25 mL of NADPH samples of different concentrations (30 μM, 60 μM and 90 μM) are added into PRP, preheating is conducted for 5 min at the temperature of 37 DEG C., the preheated material is put into the aggregometer, then, a certain amount of thrombin (2U) is added to induce platelet aggregation, graphic changes in 4 min are recorded, and conditions of thrombin-induced platelet aggregation caused by NADPH are observed.

[4] = tested on: ADP-induced platelet aggregation; experiment: ADP-induced platelet aggregation of rats, in-vitro administration of NADPH; assay type: cell-based; settings: rat PRP, NADPH 30, 60 and 90 μM in vitro, ADP 20 μM, 4 min; P<0.05, P<0.01 vs ADP group
Protocol: as §1, with “20” for “Normal SD male rats are randomly divided into 2 groups, i.e., a physiological saline group (saline group) and an NADPH (7.5 mg/kg) dosage group in a manner that each group comprises 10 rats. NADPH is injected into the rats through caudal veins 30 min before blood drawing. The”
as §2, with “100%” for “100 %”, “0.25mL” for “0.25 mL”, “ADP (20 μM)” for “thrombin (2U)”, “ADP-induced” for “thrombin-induced”

NC(=O)C1=CN([C@@H]2O[C@H](COP(=O)(O)OP(=O)(O)OC[C@H]3O[C@@H](n4cnc5c(N)ncnc54)[C@H](OP(=O)(O)O)[C@@H]3O)[C@@H](O)[C@H]2O)C=CC1 [NADPH, Reduced triphosphopyridine nucleotide]
inhibition of thrombin-induced platelet aggregation [1]: remarkably inhibit thrombin-induced platelet aggregation
inhibition of ADP-induced platelet aggregation [2]: remarkably inhibit ADP-induced platelet aggregation
inhibition of thrombin-induced platelet aggregation [3]: inhibits thrombin-induced platelet aggregation of the rats in a dose-dependent mode
inhibition of ADP-induced platelet aggregation [4]: inhibits ADP-induced platelet aggregation of rats in a dose-dependent mode
